Test results taken from patent publication US20220378777A1, “COMPOSITIONS AND METHODS FOR TREATING ALCOHOL USE DISORDER OR A RELATED CONDITION THEREOF” (priority 2019, published 2022).

Experiments:
[1] = test system: alcohol preferring (P) rats; assay: Exposure to α7 agonist AR-R17779 during early adolescence, adult EtOH consumption (acquisition and relapse drinking); type: in vivo, rat; conditions: for duration of alcohol deprivation effect (ADE): vs baseline intake
Text: (§1) Subjects. The alcohol-preferring (P) rats used in the current experiments were from the standard P stock maintained by the Animal Breeding Core of the Indiana University Alcohol Research Center (IUARC). Animals used in this study were maintained in facilities fully accredited by the Association for the Assessment and Accreditation of Laboratory Animal Care. All research protocols were approved by the IUSM Institutional Animal Care and Use Committee (IUSM IACUC) and were in accordance with the guidelines of the Institutional Care and Use Committee of the National Institute on Drug Abuse, the NIH, and the Guide for the Care and Use of Laboratory Animals (2011).
Effects of exposure to the α7 agonist AR-R17779 during early adolescence on adult EtOH consumption. Adolescent male (n=14) and female (n=13) alcohol preferring (P) rats were exposed to the α7 nicotinic receptor agonist, AR-R17779 ((2S)-2′H-spiro[4-azabicyclo[2.2.2]octane-2,5′-[1,3]oxazolidin]-2′-one) (AR; Tocris) on PND 29, 30, 33, 35, 36, and 37. The doses of AR-R17779 was 0 (saline controls), 3 or 10 mg/kg (all drugs administered i.p.). […] The doses of AR employed are typical for peripheral administered studies and results in observed alterations in specific behaviors. All rats were group housed between PND 26 and 73 (adulthood). Subjects only received treatment with AR_on the days specified.
(§2) Statistical Analysis. All statistical analyses followed the procedures/flowchart indicated by Keppel and Zedeck (1986). Briefly, the experiments examining the acquisition of alcohol consumption utilized the dependent measure of average weekly alcohol intake. The overall analyses were mixed factor ANOVAs with between subject factors of drug dose and EtOH exposure history (when applicable) and a within subject factor of Week. The statistical analyses surveying relapse drinking examined the average EtOH intake for the three days prior to deprivation and daily EtOH intake values following re-exposure. Post-hoc comparisons for between subject factors were performed with Tukey's b analyses. The Tukey's b post-hoc comparison is a modified Tukey post-hoc comparison that reduces the prohibitive penalty for unequal sample size. There is a single assumption of ANOVAs that cannot be violated. […] Therefore, within subject variables should not be treated like between subject variables and analyzed with forced ANOVAs and inappropriate post-hoc analyses. Proper within subject post-hoc analyses are t-tests and orthogonal contrasts (Keppel and Zeddeck, 1986). Given the general lack of understanding of orthogonal contrasts, the findings from t-test analyses are being reported. Concerns of Type I error rate inflation is eliminated by the proper reading of Rodgers (1967). Type 1 error rate inflations is Ψi (i=1, . . . , J−1), and not Bonferroni, an improper estimate. Given the effect size of the current data set there is no likelihood of Type 1 error rate inflation for any reported analyses (c.f., Rodgers and Roberts, 2012; Roberts, 2011).

Wistar rats = assay: Adolescent AR-R17779 exposure, adult operant beer self-administration (acquisition, extinction, relapse); type: in vivo, rat
Text: as §2
Effects of exposure to the α7 agonist AR-R17779 during early adolescence on adult EtOH consumption (acquisition, maintenance, extinction, craving, and relapse). The current experiment was conducted to generalize the effects of exposure to an α7 NAchR receptor agonist during adolescence on adult alcohol consumption in non-selected (non-genetically predisposed rats). Brief exposure to AR during adolescence in Wistar rats produced similar alterations in adult beer consumption. Male and female Wistar rats were exposed to AR (0, 3, or 10 mg/kg) on PND 29, 30, 33, 35, 36, and 37 (no alcohol exposure during adolescence). On PND 75 rats were allowed to self-administer beer (9% IPA) under operant conditions.

α7 nicotinic receptor = α7 nicotinic receptor (Homo sapiens, UniProt P36544); conditions: cited from earlier work
Chain of α7 nicotinic receptor (P36544 23-502): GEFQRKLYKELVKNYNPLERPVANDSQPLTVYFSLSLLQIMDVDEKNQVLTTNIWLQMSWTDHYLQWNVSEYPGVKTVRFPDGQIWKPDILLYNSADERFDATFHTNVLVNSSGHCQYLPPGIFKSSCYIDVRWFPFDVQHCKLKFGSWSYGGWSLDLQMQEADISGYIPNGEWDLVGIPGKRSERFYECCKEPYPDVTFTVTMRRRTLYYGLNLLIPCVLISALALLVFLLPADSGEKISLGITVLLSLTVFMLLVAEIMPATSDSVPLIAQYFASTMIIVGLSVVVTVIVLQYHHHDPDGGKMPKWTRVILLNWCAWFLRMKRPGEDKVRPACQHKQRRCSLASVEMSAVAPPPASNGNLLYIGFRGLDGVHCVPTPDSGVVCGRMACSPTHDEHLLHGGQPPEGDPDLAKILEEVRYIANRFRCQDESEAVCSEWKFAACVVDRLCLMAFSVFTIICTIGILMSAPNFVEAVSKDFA

P rats = assay: Pretreatment with α7 NAM dehydronorketamine prior to adolescent binge-like alcohol exposure (AIE), adult EtOH consumption; type: in vivo, rat; conditions: for effect on deleterious effects of adolescent alcohol exposure (adult alcohol intake, weeks 1-2): males and females
Text: as §1, §2
Effects of pretreatment with an α7 NAM dehydronorketamine prior to binge-like exposure during adolescence on adult EtOH consumption. There were 5 treatment groups. Adolescent male (n=24) and female (n=26) P rats were used in the experiment. The AIE exposure began on PND 28. Rats were given 4 g/kg alcohol (25% v/v; gavage) every Monday, Tuesday, Thursday and Friday (4 days a week; 3 days with no alcohol exposure) from post-natal day 28-48. Control (CON) groups received an equivalent volume administration of water. In the AIE groups, rats were injected (i.p.) with 0 (saline), 10 or 50 mg/kg of the α7 nicotinic receptor NAM dehydronorketamine (DHNK; Santa Cruz biotechnology) 2 hours prior to AIE exposure. CON groups received (i.p.) injections of saline or 50 mg/kg DHNK 2 hours prior to water gavage exposure. All rats were group housed between post-natal day 48 and 73 (adulthood). Pretreatment and gavage administration occurred during PND 28, 29, 30, 31, 34, 35, 37, 39, 40, 41, 44, 45, 47, and 48. Subjects were not exposed to DHNK any time after PND48.

α3β4 = α3β4 (Homo sapiens, UniProt P30926+P32297); conditions: read-out: binding to α3β4 IC50; cited from earlier work
Chain of α3β4 (P32297 32-505): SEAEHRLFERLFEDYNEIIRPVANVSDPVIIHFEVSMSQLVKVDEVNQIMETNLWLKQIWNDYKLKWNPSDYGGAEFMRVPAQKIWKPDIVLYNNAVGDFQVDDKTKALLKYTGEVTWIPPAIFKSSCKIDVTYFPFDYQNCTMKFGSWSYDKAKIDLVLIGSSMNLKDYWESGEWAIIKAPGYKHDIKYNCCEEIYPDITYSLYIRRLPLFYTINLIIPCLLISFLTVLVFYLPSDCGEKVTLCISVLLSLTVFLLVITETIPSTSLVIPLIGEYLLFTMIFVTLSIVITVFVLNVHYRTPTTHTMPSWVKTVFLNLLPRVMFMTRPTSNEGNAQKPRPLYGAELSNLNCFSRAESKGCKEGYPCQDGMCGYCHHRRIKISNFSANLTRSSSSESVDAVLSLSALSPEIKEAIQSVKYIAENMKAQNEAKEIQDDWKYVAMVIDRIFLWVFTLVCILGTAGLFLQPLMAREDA
Chain of α3β4 (P30926 22-498): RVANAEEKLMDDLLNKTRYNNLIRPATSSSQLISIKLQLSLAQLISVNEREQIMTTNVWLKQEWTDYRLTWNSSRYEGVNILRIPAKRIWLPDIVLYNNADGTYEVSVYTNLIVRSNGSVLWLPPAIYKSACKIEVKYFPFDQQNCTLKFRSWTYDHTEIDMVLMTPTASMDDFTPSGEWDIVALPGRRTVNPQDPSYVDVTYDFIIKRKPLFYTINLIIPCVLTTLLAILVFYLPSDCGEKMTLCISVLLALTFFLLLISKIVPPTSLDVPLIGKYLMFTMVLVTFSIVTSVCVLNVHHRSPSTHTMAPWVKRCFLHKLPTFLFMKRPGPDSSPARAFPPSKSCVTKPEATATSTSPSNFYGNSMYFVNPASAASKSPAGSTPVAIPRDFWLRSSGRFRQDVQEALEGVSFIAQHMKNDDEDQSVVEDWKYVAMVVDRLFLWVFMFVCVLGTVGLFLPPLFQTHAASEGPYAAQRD

female P rats = assay: Pretreatment with α7 NAM SB-277011-A prior to adolescent binge alcohol exposure (ABAE), adult EtOH consumption; type: in vivo, rat
Method: Effects of exposure to the α7 negative allosteric modulator (NAM) SB-277011-A prior to adolescence binge alcohol exposure on adult EtOH consumption. Currently, there are 3 commercially available α7 NAMs: DHNK, SB-277011-A (SB), and Butaclamol (AY-23,028). SB is also a selective D3 antagonist. Butaclamol is a typical antipsychotic that is also a non-selective dopamine receptor antagonist. Referring now to FIG. 7, the ability of SB to prevent ABAE-induced increases were assessed in adult EtOH consumption. Briefly, female P rats were exposed to the standard ABAE protocol. ABAE and CON rats were injected (i.p.) with 0 (water), 1 or 5 mg/kg SB (Sigma) 2 hours before gavage treatment. […] Statistically, there was a significant ABAE X SB Dose X Day interaction term (F12,244=2.3; p<0.01). Therefore, the data sets indicate that despite having different off-target sites of activation (SB-D3 antagonist), both α7 NAMs prevented the deleterious consequences of ABAE.

[2] = 3 and 10 mg/kg AR during adolescence
[3] = 1 or 5 mg/kg SB i.p. 2 hours before gavage

With O=C1NC[C@@]2(CN3CCC2CC3)O1 [AR-R17779, (2S)-2′H-spiro[4-azabicyclo[2.2.2]octane-2,5′-[1,3]oxazolidin]-2′-one] the “duration of alcohol deprivation effect (ADE)” value ([1]; female P rats, 3 mg/kg AR during adolescence) was 2 days, the “duration of alcohol deprivation effect (ADE)” value ([1]; female P rats, 10 mg/kg AR during adolescence) was 3 days and the “adult alcohol intake, 1st week of alcohol access” value ([1]; female P rats, 10 mg/kg AR i.p. during early adolescence vs saline or 3 mg/kg, Tukey's b) was “consumed more alcohol than rats administered saline or 3 mg/kg AR during adolescence”. For the same compound, the “relapse EtOH drinking, Day 1 of EtOH re-exposure” value ([1]; female P rats, 10 mg/kg AR vs 3 mg/kg group) was “consumed more alcohol than the 3 mg/kg group”, the “relapse EtOH drinking, 2nd re-exposure day” value ([1]; female P rats, 10 mg/kg AR vs saline) was “consumed more alcohol than rats administered saline” and the “adult alcohol intake, 2nd week of alcohol access” value ([1]; female P rats, 3 and 10 mg/kg AR i.p. during early adolescence vs saline, p<0.05) was 10 mg/kg>3 mg/kg>saline. The “relapse EtOH drinking, re-exposure day 3” value ([1]; female P rats, 3 and 10 mg/kg AR vs saline) was 10 mg/kg>3 mg/kg>Saline, the “relapse EtOH drinking (FIG. 3, +)” value ([1]; female and male P rats, 10 mg/kg during adolescence vs saline) was “consumed more alcohol than saline controls” and the “average alcohol intake in adulthood (FIG. 2, #)” value ([1]; female and male rats, 3 mg/kg during adolescence) was 3 mg/kg>saline. For the same compound, the “average alcohol intake in adulthood (FIG. 2, *)” value ([1]; female and male rats, 10 mg/kg during adolescence) was 10 mg/kg AR-R17779>3 mg/kg and saline, the “ADE, EtOH intake vs baseline” value ([1]; male P rats, 3 mg/kg AR during adolescence, p<0.05) was “elevated levels of EtOH intake during the 1st re-exposure day compared to baseline intake” and the “ADE, EtOH intake vs baseline” value ([1]; male P rats, 10 mg/kg AR during adolescence) was “Evidence of an ADE was detected during re-exposure days 1-3”. For the same compound, the “adult alcohol intake, 1st and 2nd weeks of alcohol access” value ([1]; male P rats, 10 mg/kg AR i.p. during early adolescence vs saline or 3 mg/kg, p<0.05) was “consumed more alcohol than rats administered saline or 3 mg/kg AR”, the “relapse EtOH drinking, group differences during re-exposure days 1-4” value ([1]; male P rats, AR 0, 3, 10 mg/kg, p>0.083) was “no significant group differences” and the “beer self-administration during adulthood (FIG. 4, *)” value (Wistar rats; [2]) was 3 and 10 AR>saline. For the same compound, the “beer self-administration during adulthood (FIG. 4, +)” value (Wistar rats; [2]) was 10>3>saline, the “acquisition of alcohol self-administration, sessions 7-14” value (Wistar rats; AR 3 or 10 mg/kg during adolescence, beer (9% IPA), operant) was “acquired alcohol self-administration faster than controls” and the “rate of extinction learning” value (Wistar rats; adolescent exposure, no alcohol available) was “retarded the rate of extinction learning”. For the same compound, the “relapse drinking (individual ANOVAs)” value (Wistar rats; alcohol re-exposure, p values<0.001) was “enhanced relapse drinking”, the “lever responding, extinction session 3” value (Wistar rats; highest dose of AR-R17779) was “responded more on the lever previously associated with delivery of alcohol than all other groups” and the “alcohol consumed during re-exposure sessions (post-hoc)” value (Wistar rats; vs saline controls) was “consumed more alcohol than control rats (saline) during the initial 3 re-exposure sessions”. The “lever responding, extinction sessions 1 and 2” value (Wistar rats; vs saline treated rats, Tukey's b) was “responded more on the lever previously associated with the delivery of alcohol” and the “affinity for receptors other than α7 nicotinic receptor” value (α7 nicotinic receptor) was “no or minimal affinity for all other examined receptors”.
In the case of NC1(c2ccccc2Cl)CCC=CC1=O (centres unmarked) [DHNK, 5,6-dehydronorketamine], the “effect on deleterious effects of adolescent alcohol exposure (adult alcohol intake, weeks 1-2)” value (P rats; P rats, 10 mg/kg DHNK i.p. 2 hours prior to AIE) is reported as “blocked the deleterious effects of adolescent alcohol exposure”, the “effect on deleterious effects of adolescent alcohol exposure (adult alcohol intake, weeks 1-2)” value (P rats; P rats, 50 mg/kg DHNK i.p. 2 hours prior to AIE) is reported as “blocked the deleterious effects of adolescent alcohol exposure” and the “adult alcohol drinking without adolescent alcohol (CON-50 mg/kg DHNK)” value (P rats; P rats, 50 mg/kg DHNK i.p. prior to water gavage) is reported as “did not alter alcohol drinking during adulthood”. For the same compound, the “effect on AIE-enhanced relapse drinking” value (P rats; P rats, DHNK pretreatment) was “altered the enhancement in relapse drinking produced by AIE exposure”, the “relapse alcohol drinking vs baseline” value (P rats; female P rats, AIE-10 mg/kg DHNK, paired t-tests) was “increase in alcohol consumption (compared to baseline during the 1st re-exposure day)” and the “relapse alcohol drinking vs baseline” value (P rats; female P rats, ATE-50 mg/kg DHNK, paired t-tests) was “increase in alcohol consumption during the first three re-exposure days”. For the same compound, the “relapse alcohol drinking vs baseline” value (P rats; female P rats, CON-50 mg/kg DHNK, paired t-tests) was “significant increase in alcohol drinking during the 1st re-exposure day”, the “relapse alcohol drinking vs baseline” value (P rats; male P rats, AIE-10 mg/kg DHNK) was “increase in drinking during the 1st re-exposure day” and the “relapse alcohol drinking vs baseline (ADE)” value (P rats; male P rats, AIE-50 mg/kg) was “did not display an ADE”. The “relapse alcohol drinking vs baseline (ADE)” value (P rats; male P rats, CON-50 mg/kg) was “did not display an ADE”, the “effect on AIE-induced increase of adult alcohol consumption (overall)” value (P rats; male and female P rats, DHNK i.p. 2 hours prior to AIE) was “blocked the ability of adolescent alcohol exposure to increase alcohol consumption during adulthood” and the IC50 (α3β4) was > 200 µM.
In the case of N#Cc1ccc2c(c1)CCN(CC[C@H]1CC[C@H](NC(=O)c3ccnc4ccccc34)CC1)C2 [SB-277011-A, N-{trans-4-[2-(6-cyano-3,4-dihydroisoquinolin-2(1H)-yl)ethyl]cyclohexyl}quinoline-4-carboxamide], the “relapse EtOH drinking, ABAE vs corresponding CON group (FIG. 8, +)” value (female P rats; 1 mg/kg SB prior to ABAE) is reported as “consumed more alcohol than corresponding CON group”, the “adult EtOH consumption (FIG. 7, +)” value (female P rats; 1 mg/kg vs 5 mg/kg SB) is reported as 1 mg/kg>5 mg/kg SB rats and the “adult EtOH consumption (FIG. 7, #)” value (female P rats; 5 mg/kg SB vs water-ABAE and 1 mg/kg SB) is reported as “water-ABAE and 1 mg/kg SB>5 mg/kg SB rats”. The “adult EtOH consumption (FIG. 7, *)” value (female P rats; 1 and 5 mg/kg SB vs water-ABAE) was “water-ABAE rats >1 mg and 5 mg/kg SB rats”, the “effect on ABAE-induced enhancement of EtOH consumption during relapse (ADE)” value (female P rats; [3]) was “prevented ABAE-induced enhancement of EtOH consumption during relapse (ADE) conditions” and the “effect on ABAE-induced increase in EtOH consumption during acquisition” value (female P rats; [3]) was “prevented the ABAE-induced increase in EtOH consumption during acquisition”.
